# Laboratory results reported in publication PMC10729960, “Developing novel antimicrobials by combining cancer chemotherapeutics with bacterial DNA repair inhibitors” (PLOS Pathogens, 2023).
# What was measured:
# Type in all cases: biochemical
# [1] = target: T1, UvrABC (UvrA, UvrB and UvrC) (Escherichia coli, UniProt P0A698+P0A8F8+P0A8G0); assay: fluorescence-based DNA incision assay (Cy5 / black hole quencher); conditions: 37 °C, 200 nM UvrA, 400 nM UvrB, 200 nM UvrC, 1 mM ATP, 100 nM fluorescein-adducted DNA, pH 7.5, compound concentration not given for this assay
# T1 construct: purified proteins; UvrB and UvrC with C-terminal linker, AviTag, TEV site and 6xHis
# T1 sequence (P0A8G0 whole entry, one chain of several): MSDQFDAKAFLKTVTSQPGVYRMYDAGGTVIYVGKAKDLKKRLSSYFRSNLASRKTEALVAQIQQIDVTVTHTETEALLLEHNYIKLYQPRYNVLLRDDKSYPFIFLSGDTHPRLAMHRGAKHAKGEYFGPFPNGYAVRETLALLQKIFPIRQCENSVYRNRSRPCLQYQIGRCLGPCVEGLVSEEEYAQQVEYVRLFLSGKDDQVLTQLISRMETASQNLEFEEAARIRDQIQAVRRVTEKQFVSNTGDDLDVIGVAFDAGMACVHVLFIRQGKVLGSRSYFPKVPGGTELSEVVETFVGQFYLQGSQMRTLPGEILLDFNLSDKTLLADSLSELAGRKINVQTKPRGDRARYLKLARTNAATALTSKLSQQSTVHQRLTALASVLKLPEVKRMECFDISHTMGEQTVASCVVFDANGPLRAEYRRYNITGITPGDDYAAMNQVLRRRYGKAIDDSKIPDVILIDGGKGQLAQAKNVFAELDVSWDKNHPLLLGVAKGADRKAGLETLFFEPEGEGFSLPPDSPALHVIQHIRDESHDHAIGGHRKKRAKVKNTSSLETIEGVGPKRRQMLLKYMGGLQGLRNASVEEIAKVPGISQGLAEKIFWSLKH
# T1 sequence (P0A8F8 2-673, one chain of several): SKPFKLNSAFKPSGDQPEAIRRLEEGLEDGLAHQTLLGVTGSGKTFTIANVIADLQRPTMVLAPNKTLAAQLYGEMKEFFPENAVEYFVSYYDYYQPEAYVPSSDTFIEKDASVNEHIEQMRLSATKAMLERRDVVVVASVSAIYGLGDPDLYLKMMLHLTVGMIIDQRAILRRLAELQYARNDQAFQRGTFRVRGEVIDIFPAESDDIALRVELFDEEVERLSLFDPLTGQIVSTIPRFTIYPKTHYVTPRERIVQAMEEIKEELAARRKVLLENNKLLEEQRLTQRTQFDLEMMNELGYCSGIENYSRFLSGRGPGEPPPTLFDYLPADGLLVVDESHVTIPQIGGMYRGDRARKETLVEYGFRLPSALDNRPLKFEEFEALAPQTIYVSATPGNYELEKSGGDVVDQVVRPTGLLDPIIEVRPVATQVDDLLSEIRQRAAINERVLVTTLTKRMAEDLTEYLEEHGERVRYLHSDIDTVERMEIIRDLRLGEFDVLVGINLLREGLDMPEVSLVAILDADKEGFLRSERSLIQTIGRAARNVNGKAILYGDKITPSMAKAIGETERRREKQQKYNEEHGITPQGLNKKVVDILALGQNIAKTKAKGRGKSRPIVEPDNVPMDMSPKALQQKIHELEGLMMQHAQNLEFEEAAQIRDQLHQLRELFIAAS
# [2] = target: T2, UvrA (Escherichia coli, UniProt P0A698); assay: NADH-coupled ATPase assay (pyruvate kinase / lactate dehydrogenase); conditions: 1 mM ATP, 50 nM UvrA, 10 mM MgCl2, pH 7.5, room temperature
# T2 sequence (P0A698 1-940): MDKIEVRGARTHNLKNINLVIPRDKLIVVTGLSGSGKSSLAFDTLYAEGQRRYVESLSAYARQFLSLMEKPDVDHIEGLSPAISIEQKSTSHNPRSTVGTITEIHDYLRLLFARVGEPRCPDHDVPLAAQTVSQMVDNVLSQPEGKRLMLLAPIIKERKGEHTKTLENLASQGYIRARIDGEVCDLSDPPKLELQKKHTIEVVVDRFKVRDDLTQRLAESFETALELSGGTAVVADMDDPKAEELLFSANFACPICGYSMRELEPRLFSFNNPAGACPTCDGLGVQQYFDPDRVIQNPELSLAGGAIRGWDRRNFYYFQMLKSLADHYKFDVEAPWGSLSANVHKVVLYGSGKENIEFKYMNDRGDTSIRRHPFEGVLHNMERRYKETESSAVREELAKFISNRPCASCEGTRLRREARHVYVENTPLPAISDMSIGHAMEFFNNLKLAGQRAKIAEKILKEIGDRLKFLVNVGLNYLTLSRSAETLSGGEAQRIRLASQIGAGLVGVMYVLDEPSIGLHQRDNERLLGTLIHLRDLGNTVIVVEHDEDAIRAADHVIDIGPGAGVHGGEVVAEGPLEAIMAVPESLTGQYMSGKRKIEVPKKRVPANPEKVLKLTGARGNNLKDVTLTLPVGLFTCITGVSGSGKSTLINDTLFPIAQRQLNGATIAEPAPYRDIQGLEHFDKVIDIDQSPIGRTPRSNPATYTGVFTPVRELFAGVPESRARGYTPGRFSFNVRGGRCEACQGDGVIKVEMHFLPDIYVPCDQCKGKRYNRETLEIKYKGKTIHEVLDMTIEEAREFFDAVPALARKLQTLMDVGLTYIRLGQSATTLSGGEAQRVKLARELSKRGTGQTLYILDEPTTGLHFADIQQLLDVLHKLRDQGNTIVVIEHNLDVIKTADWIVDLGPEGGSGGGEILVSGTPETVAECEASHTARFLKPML
# [3] = target: T2, UvrA; assay: as above; conditions: without DNA; 50 nM UvrA, 20 μM compound, 1 mM ATP, 10 mM MgCl2, pH 7.5, room temperature; allosteric site only from docking
# [4] = target: T2, UvrA; assay: as above; conditions: with and without DNA; 50 nM UvrA, 20 μM compound, 1 mM ATP, 10 mM MgCl2, pH 7.5, room temperature; DNA intercalator
SMILES,% reduction of ATPase at 20 μM [3] [%],% ATPase activity at 20 μM [4],other results
Nc1c2ccccc2nc2ccccc12 [9-aminoacridine],–,–,"max inhibition ([1]; 2.5 h, possibly acts through DNA, target subunit unk): ~ 49%"
Nc1ncnc2c1ncn2[C@@H]1O[C@H](COP(=O)(O)OP(=O)(O)OP(=O)(O)O)[C@@H](O)[C@H]1O [ATP],–,–,NADH-coupled ATPase assay (pyruvate kinase / lactate dehydrogenase) [2]: We directly measured the rate of ATP turnover for purified UvrA
C/C=C(/C(=C/C)c1ccc(O)cc1)c1ccc(O)cc1 [Dienestrol],> 70,–,max inhibition ([1]; 16 h): ~ 25%
N[C@@H](Cc1cc(I)c(Oc2cc(I)c(O)c(I)c2)c(I)c1)C(=O)O [L-thyroxine],> 70,–,–
O=C1c2c(O)ccc(O)c2C(=O)c2c(NCCNCCO)ccc(NCCNCCO)c21 [Mitoxantrone],–,both Mitoxantrone and Pirarubicin directly inhibit UvrA’s ATPase activity,"max inhibition ([1]; 16 h, DNA intercalator): ~ 82%"
COc1cccc2c1C(=O)c1c(O)c3c(c(O)c1C2=O)C[C@@](O)(C(=O)CO)C[C@@H]3O[C@H]1C[C@H](N)[C@H](O[C@@H]2CCCCO2)[C@H](C)O1 [Pirarubicin],–,"Pirarubicin, Mitoxantrone, Dienestrol and L-thyroxine all inhibited the ATPase",–
